Measurements as given in US5948780A, “Method for treating and preventing heart failure and ventricular dilatation” (priority 1997, dated 1999).
Where two headings read alike, the source gives them in different places.

Experiments:
MMPs = assay: MMP inhibition at trough plasma level in pigs; conditions: 20 mg/kg/day oral
[1] = test system: MI-rat (coronary artery ligation) heart failure model; assay: ischemic model of heart failure (MI-rat), Compound A dose-response; assay type: in vivo; parameters: LVV at LVEDP: unit not given here; conditions: for LVEDP / LVV at LVEDP / dp/dt MAX: 6 weeks
[2] = test system: chronic rapid pacing heart failure model; assay: LV geometry, LV function and systemic hemodynamics with chronic rapid pacing (Table III); assay type: in vivo, pig; conditions: Rapid Pacing + MMPi, 20 mg/kg QD, 3 weeks, mean ± SEM
Excerpt: Pacemakers were implanted or sham procedures performed with the animals anesthetized as described in the preceding section. In addition to the placement of the aortic access port, a shielded stimulating electrode was sutured onto the left atrium, connected to a modified programmable pacemaker (8329, Medtronic, Inc., Minneapolis, Minn.), and buried in a subcutaneous pocket. The pericardium was approximated, the thoracotomy closed, and the pleural space evacuated of air. Ten to 14 days following recovery from the surgical procedure, baseline studies were performed, and the protocols described above were begun. Cardiac auscultation and an electrocardiogram were performed frequently during the pacing protocol in order to ensure proper operation of the pacemaker and the presence of 1:1 conduction. In this porcine preparation, atrio-ventricular conduction can be maintained at this pacing rate and therefore provide a homogeneous pattern of ventricular myocardial electrical activation. The sham operated controls were cared for in identical fashion with the exception of the pacing protocol. All animals were treated and cared for in accordance with the National Institutes of Health "Guide for the Care and Use of Laboratory Animals" (National Research Council, Washington, 1996).
LV size and function were measured at weekly intervals in all of the pigs undergoing rapid pacing. For these studies, the animals were brought to the laboratory and the pacemaker deactivated. All measurements were performed at an ambient resting heart rate within 30 to 40 minutes following pacemaker deactivation. Two-dimensional and M-mode echocardiographic studies (ATL Ultramark VI, 2.25 MHz transducer, Bothell, Wash.) were used to image the LV from a right parasternal approach. LV fractional shortening was calculated as ([…])/end-diastolic dimension and was expressed as a percent. Peak circumferential global average wall stress was computed using a spherical model of reference: σ(gm/cm^2)=(PD/4h(1+h/D))×1.36; where P=aortic systolic pressure measured from the access port, D=minor axis dimension at end-diastole, and h=wall thickness. The mean velocity of circumferential fiber shortening (Vcf) was calculated using the LV echocardiographic dimension measurements and the arterial pressure trace. The LV ejection time, used in the calculation of Vcf, was rate-corrected to a heart rate of 60 bpm by […] by the square root of the RR interval.

[3] = plasma levels of Compound A in MI-rat; assay type: in vivo; conditions: po, read-out: Plasma Level
Method: Drugs were administered in chow such that the investigators were blinded to group assignment. A biweekly record of health status, body weight, and food consumption was maintained.
Dosing began at 2 weeks post-MI and continued for 6 weeks.
The isoflurane level was then increased to 2%; the Millar was removed from the carotid and replaced with a PE-50 cannula. A 5 mL blood sample was taken using the PE-50 cannula and an ice-cold syringe. Blood was then put into an ice-cold EDTA tube, and centrifuged at 5000 RPM for 10 minutes at 4° C. Plasma was aliquoted, then stored at -80° C. until assays were performed to assess plasma drug levels and other factors.

CC(C)C(NS(=O)(=O)c1ccc(-c2ccc(Br)cc2)cc1)C(=O)O (stereo not drawn) [Compound A, 2-(4'-bromobiphenyl-4-sulfonylamino)-3-methylbutyric acid]
inhibition of MMPs at trough level (MMPs): a level great enough to inhibit all MMPs tested
LVEDP ([1]; 0.005 mg/kg/day in chow): 20 ± 4 mm Hg
LVV at LVEDP ([1]; 0.005 mg/kg/day in chow): 650 ± 96
dp/dt MAX ([1]; 0.005 mg/kg/day in chow): 5900 ± 474 mm Hg/sec
LVEDP ([1]; 0.05 mg/kg/day in chow): 16 ± 3 mm Hg
LVV at LVEDP ([1]; 0.05 mg/kg/day in chow): 622 ± 72
dp/dt MAX ([1]; 0.05 mg/kg/day in chow): 6553 ± 331 mm Hg/sec
LVEDP ([1]; 0.5 mg/kg/day in chow): 20 ± 3 mm Hg
LVV at LVEDP ([1]; 0.5 mg/kg/day in chow): 751 ± 65
dp/dt MAX ([1]; 0.5 mg/kg/day in chow): 5997 ± 351 mm Hg/sec
LVEDP ([1]; 5 mg/kg/day in chow): 16 ± 3 mm Hg
LVV at LVEDP ([1]; 5 mg/kg/day in chow): 647 ± 66
dp/dt MAX ([1]; 5 mg/kg/day in chow): 6357 mm Hg/sec
LV function as measured by dP/dt MAX ([1]; 3 highest doses): significantly improved LV function
LV dilation ([1]; every dose (0.005-5 mg/kg/day in chow)): significantly reduced LV dilation at every dose
End-Diastolic Dimension [2]: 4.7 ± 0.2 cm
Fractional Shortening [2]: 26 ± 3%
Heart Rate [2]: 149 ± 3 bpm
Mean Arterial Pressure [2]: 83 ± 2 mmHg
Peak Wall Stress [2]: 185 ± 11 g/cm^2
Vcf (velocity of circumferential fiber shortening) [2]: 1.4 ± 0.2 s⁻¹
Vcfc (velocity of circumferential fiber shortening corrected for heart rate) [2]: 2.3 ± 0.2 s⁻¹
Wall Thickness [2]: 0.80 ± 0.22 CM
concentration at 1008 h ([3]; 0.005 mg/kg/day in chow): 2 ± 1 µM
concentration at 1008 h ([3]; 0.05 mg/kg/day in chow): 16 ± 4 µM
concentration at 1008 h ([3]; 0.5 mg/kg/day in chow): 55 ± 3 µM
concentration at 1008 h ([3]; 5 mg/kg/day in chow): 201 ± 7 µM
